The source of these data is patent publication US9249163B2, “PDE10a inhibitors for the treatment of type II diabetes” (Janssen Pharmaceutica, NV, priority 2013, dated 2016).

Assay [1] addresses Human recombinant PDE10A2 (Homo sapiens (Human), UniProt Q9Y233). The assay can be described thus: In vitro hPDE10a (human recombinant PDE10A2, scintillation proximity assay). The assay is classed as biochemical. To be noted: human recombinant PDE10A2, 60 nM cAMP, 60 min at room temperature; read-out: hPDE10a2 IC50. As for the experimental part: Human recombinant PDE10A2 was expressed in Sf9 cells, using a recombinant baculovirus construct containing the full length sequence containing a 6×His sequence following the start Met to allow metal affinity purification of the recombinant protein. Cells were harvested and the phosphodiesterase protein was purified by metal chelate chromatography on Ni-sepharose 6FF.
The affinity of the compounds of Formula (I) for phophodiesterases (PDE) was measured by a scintillation proximity assay (SPA). PDE Yttrium Silicate SPA beads allow PDE activity to be measured by direct binding of the primary phosphate groups of non-cyclic AMP or GMP to the beads via a complex iron chelation mechanism. The amount of bound tritiated product ([^3H]-AMP) is measured by liquid scintillation counting.
The compounds were dissolved and diluted in 100% DMSO in polystyrene plates to a concentration of 100-fold the final concentration in the assay. Human PDE10A enzyme solution (10 μL) was added to 20 μL, of incubation buffer (50 mM Tris pH 7.8, 8.3 mM MgCl2, 1.7 mM EGTA), 10 μL, substrate solution consisting of a mixture of non-tritiated and tritiated substrate (60 nM cAMP, 0.008 μCi ^3H-cAMP), and 0.4 μL, compound in 100% DMSO in a 384-well plate, and incubated for 60 min at room temperature. After incubation, the reaction was stopped with 20 μL, of stop solution, consisting of PDE SPA beads (17.8 mg beads/mL in 18 mM zinc sulphate). After sedimentation of the beads for 30 min, the radioactivity was measured in a Perkin Elmer Topcount scintillation counter and results were expressed as cpm. To measure the low control, no enzyme was added to the reaction mixture.
Data were calculated as the percentage of inhibition of total activity measured in the absence of test compound (% control).

The target of assay [2] is Rat recombinant PDE10a (rPDE10a) (Rattus norvegicus (Rat), UniProt Q9QYJ6). The assay can be described thus: In vitro assay PDE10a (rat recombinant PDE10a, SPA). It is filed as biochemical. The settings on record: 60 nM cAMP, 60 min at rt, read-out: rPDE10a2 IC50. The protocol: Rat recombinant PDE10a (rPDE10a) was expressed in Sf9 cells using a recombinant rPDE10a baculovirus construct. Cells were harvested after 48 h of infection and the rPDE10a protein was purified by metal chelate chromatography on Ni-sepharose 6FF. Tested compounds were dissolved and diluted in 100% DMSO to a concentration 100 fold of the final concentration in the assay. Compound dilutions (0.4 μL) were added in 384 well plates to 20 μL of incubation buffer (50 mM Tris pH 7.8, 8.3 mM MgCl2, 1.7 mM EGTA). 10 μL of rPDE10a enzyme in incubation buffer was added and the reaction was started by addition of 10 μL substrate to a final concentration of 60 nM cAMP and 0.008 μCi ^3H-cAMP. The reaction was incubated for 60 min at rt. After incubation, the reaction was stopped with 20 μL of 17.8 mg/mL PDE SPA beads. After sedimentation of the beads during 30 min the radioactivity was measured in a Perkin Elmer Topcount scintillation counter and results were expressed as cpm. For blank values the enzyme was omitted from the reaction and replaced by incubation buffer. Control values were obtained by addition of a final concentration of 1% DMSO instead of compound.

pIC50: −log10 of the molar value. Structures can show the parent of a compound that is named as a salt.

Rat recombinant PDE10a (rPDE10a), sequence (Q9QYJ6 whole entry): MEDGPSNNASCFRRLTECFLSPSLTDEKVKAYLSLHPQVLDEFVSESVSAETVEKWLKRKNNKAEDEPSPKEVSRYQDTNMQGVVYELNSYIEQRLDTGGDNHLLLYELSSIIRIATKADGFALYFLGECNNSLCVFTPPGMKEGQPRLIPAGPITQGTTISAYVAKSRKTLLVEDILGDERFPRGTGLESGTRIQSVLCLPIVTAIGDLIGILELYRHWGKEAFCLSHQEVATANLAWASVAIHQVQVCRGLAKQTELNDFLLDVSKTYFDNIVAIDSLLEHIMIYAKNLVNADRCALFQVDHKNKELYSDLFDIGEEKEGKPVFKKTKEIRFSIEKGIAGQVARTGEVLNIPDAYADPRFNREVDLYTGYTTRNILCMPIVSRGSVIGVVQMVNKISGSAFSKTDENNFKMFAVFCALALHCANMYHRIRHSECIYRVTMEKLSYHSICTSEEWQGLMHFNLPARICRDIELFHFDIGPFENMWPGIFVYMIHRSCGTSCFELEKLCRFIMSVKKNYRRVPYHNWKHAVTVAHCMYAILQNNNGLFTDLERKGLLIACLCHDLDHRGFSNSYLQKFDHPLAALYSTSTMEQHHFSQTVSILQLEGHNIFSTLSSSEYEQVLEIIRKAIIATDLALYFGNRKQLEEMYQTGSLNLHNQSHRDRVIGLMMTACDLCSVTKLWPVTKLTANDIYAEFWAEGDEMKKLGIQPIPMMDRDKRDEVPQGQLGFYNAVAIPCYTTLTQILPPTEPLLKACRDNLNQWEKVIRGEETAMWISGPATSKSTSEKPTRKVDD
Human recombinant PDE10A2, sequence (Q9Y233 267-1055): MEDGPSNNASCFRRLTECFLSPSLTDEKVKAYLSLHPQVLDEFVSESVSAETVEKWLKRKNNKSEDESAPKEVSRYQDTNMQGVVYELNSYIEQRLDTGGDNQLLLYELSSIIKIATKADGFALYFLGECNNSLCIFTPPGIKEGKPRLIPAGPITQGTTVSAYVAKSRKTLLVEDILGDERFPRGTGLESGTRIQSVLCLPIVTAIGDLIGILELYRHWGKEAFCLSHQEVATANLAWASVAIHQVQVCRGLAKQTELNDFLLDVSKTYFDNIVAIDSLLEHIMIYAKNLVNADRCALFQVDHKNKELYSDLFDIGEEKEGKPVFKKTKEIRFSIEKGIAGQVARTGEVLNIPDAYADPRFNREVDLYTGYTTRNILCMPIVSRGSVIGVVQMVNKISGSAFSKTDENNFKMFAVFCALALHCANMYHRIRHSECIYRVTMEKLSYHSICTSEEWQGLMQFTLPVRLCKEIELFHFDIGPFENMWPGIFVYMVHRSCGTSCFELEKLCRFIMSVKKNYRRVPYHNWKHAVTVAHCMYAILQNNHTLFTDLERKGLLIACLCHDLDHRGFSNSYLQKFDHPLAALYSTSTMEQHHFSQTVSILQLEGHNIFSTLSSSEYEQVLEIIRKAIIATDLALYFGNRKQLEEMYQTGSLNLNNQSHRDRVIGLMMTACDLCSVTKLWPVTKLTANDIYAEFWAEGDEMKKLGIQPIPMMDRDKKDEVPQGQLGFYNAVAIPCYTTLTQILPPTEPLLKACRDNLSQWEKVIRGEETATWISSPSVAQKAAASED

Consider `OC(c1ccc(-c2cnc(N3CCOCC3)c3nc(/C=C/c4ccc5ccccc5n4)cn23)cc1)(C(F)(F)F)C(F)(F)F` [Cpd 2, (E)-1,1,1,3,3,3-hexafluoro-2-(4-(8-morpholino-2-(2-(quinolin-2-yl)vinyl)imidazo[1,2-a]pyrazin-5-yl)phenyl)propan-2-ol], for which the results for the pIC50 in assay [1] and in assay [2] were 7.52 and 7.70, respectively.

`O=C(O)c1ccc(-c2cnc(N3CCOCC3)c3nc(/C=C/c4ccc5ccccc5n4)cn23)cc1F` [Cpd 3, (E)-2-Fluoro-4-(8-morpholino-2-(2-(quinolin-2-yl)vinyl)imidazo[1,2-a]pyrazin-5-yl)benzoic acid hydrochloric acid salt]: the pIC50 in assay [1] is 8.30; in assay [2], 8.05.

For `O=C(O)c1ccc(-c2cnc(N3CCOCC3)c3nc(/C=C/c4ccc5ccccc5n4)cn23)nc1` [Cpd 6, (E)-6-(8-morpholino-2-(2-(quinolin-2-yl)vinyl)imidazo[1,2-a]pyrazin-5-yl)nicotinic acid hydrochloric acid salt], the figures for the pIC50 in assay [1] and in assay [2] were 7.92 and 7.85, respectively.

As to `COc1cccc(/C=C/c2cn3c(-c4ccc(C(=O)O)cc4)cnc(N4CCOCC4)c3n2)n1` [Cpd 7, (E)-4-(2-(2-(6-Methoxypyridin-2-yl)vinyl)-8-morpholinoimidazo[1,2-a]pyrazin-5-yl)benzoic acid], the pIC50 in assay [1] was 8.22; in assay [2] it was 7.80.

As to `O=C(O)Cn1cc(-c2cnc(N3CCOCC3)c3nc(C#Cc4ccc5ccccc5n4)cn23)cn1` [Cpd 9, 2-(4-(8-Morpholino-2-(quinolin-2-ylethynyl)imidazo[1,2-a]pyrazin-5-yl)-1H-pyrazol-1-yl)acetic acid], the pIC50 in assay [1] was 9.00; in assay [2], 8.70.

As to `O=C(O)c1ccc(-c2cnc(N3CCOCC3)c3nc(C#Cc4ccccn4)cn23)cc1` [Cpd 10, 4-(8-Morpholino-2-(pyridin-2-ylethynyl)imidazo[1,2-a]pyrazin-5-yl)benzoic acid], the pIC50 in assay [1] is 7.92; in assay [2] it was 7.80.

For `O=C(O)c1ccc(-c2cnc(N3CCOCC3)c3nc(C#Cc4nc5ccccc5s4)cn23)cc1` [Cpd 11, 4-(2-(Benzo[d]thiazol-2-ylethynyl)-8-morpholinoimidazo[1,2-a]pyrazin-5-yl)benzoic acid], the pIC50 is 8.15 in assay [1] and 8.05 in assay [2].

As to `CS(=O)(=O)NC(=O)c1ccc(-c2cnc(N3CCOCC3)c3nc(CSc4ccc5ccccc5n4)cn23)cc1` [Cpd 12, N-(Methylsulfonyl)-4-(8-morpholino-2-((quinolin-2-ylthio)methyl)imidazo[1,2-a]pyrazin-5-yl)benzamide], the pIC50 in assay [1] is 8.70; in assay [2], 8.40.

For the compound `CC(C)[C@H](Nc1ccc(-c2cnc(N3CCOCC3)c3nc(/C=C/c4ccc5ccccc5n4)cn23)cc1)C(=O)O` [Cpd 15, (S,E)-3-Methyl-2-(4-(8-morpholino-2-(2-(quinolin-2-yl)vinyl)imidazo[1,2-a]pyrazin-5-yl)phenylamino)butanoic acid trifluoroacetic acid salt], the pIC50 in assay [1] is 7.52; in assay [2], 7.29.

`O=C(O)c1ccc(-c2cnc(N3CCOCC3)c3nc(CCc4ccc5ccccc5n4)cn23)cc1` [Cpd 17, 4-(8-Morpholino-2-(2-(quinolin-2-yl)ethyl)imidazo[1,2-a]pyrazin-5-yl)benzoic acid trifluoroacetic acid salt]: the pIC50 in assay [1] and in assay [2] was 8.52 in each case.

Consider `COCCOCCOc1ccc(-c2cnc(N3CCOCC3)c3nc(/C=C/c4ccc5ccccc5n4)cn23)cc1` [Cpd 18, (E)-4-(5-(4-(2-(2-Methoxyethoxy)ethoxy)phenyl)-2-(2-(quinolin-2-yl)vinyl)imidazo[1,2-a]pyrazin-8-yl)morpholine], for which the pIC50 was 7.08 in assay [1] and 6.99 in assay [2].

For `CN1C(=O)Nc2ccc(-c3cnc(N4CCOCC4)c4nc(/C=C/c5ccc6ccccc6n5)cn34)cc2S1(=O)=O` [Cpd 19, (E)-2-Methyl-7-(8-morpholino-2-(2-(quinolin-2-yl)vinyl)imidazo[1,2-a]pyrazin-5-yl)-2H-benzo[e][1,2,4]thiadiazin-3(4H)-one 1,1-dioxide], the pIC50 is 7.74 in assay [1] and 7.82 in assay [2].

In the case of `CN1C(=O)N(C)S(=O)(=O)c2cc(-c3cnc(N4CCOCC4)c4nc(/C=C/c5ccc6ccccc6n5)cn34)ccc21` [Cpd 20, (E)-2,4-Dimethyl-7-(8-morpholino-2-(2-(quinolin-2-yl)vinyl)imidazo[1,2-a]pyrazin-5-yl)-2H-benzo[e][1,2,4]thiadiazin-3(4H)-one 1,1-dioxide], the pIC50 in assay [1] is 8.10; in assay [2], 7.59.

As for `O=c1[nH]cnn1-c1ccc(-c2cnc(N3CCOCC3)c3nc(CCc4ccc5ccccc5n4)cn23)cc1` [Cpd 21, 1-(4-(8-Morpholino-2-(2-(quinolin-2-yl)ethyl)imidazo[1,2-a]pyrazin-5-yl)phenyl)-1H-1,2,4-triazol-5(4H)-one], the figures for the pIC50 in assay [1] and in assay [2] were 7.60 and 7.51, respectively.

Take `O=C(O)CCNc1ccc(-c2cnc(N3CCOCC3)c3nc(/C=C/c4ccc5ccccc5n4)cn23)cc1` [Cpd 22, (E)-3-(4-(8-Morpholino-2-(2-(quinolin-2-yl)vinyl)imidazo[1,2-a]pyrazin-5-yl)phenylamino)propanoic acid trifluoroacetic acid salt]: the negative logarithm of the IC50 (pIC50) in assay [1] and in assay [2] was 8.05 each time.

With `O=C(O)CCNc1ccc(-c2cnc(N3CCOCC3)c3nc(CCc4ccc5ccccc5n4)cn23)cc1` [Cpd 23, 3-(4-(8-Morpholino-2-(2-(quinolin-2-yl)ethyl)imidazo[1,2-a]pyrazin-5-yl)phenylamino)propanoic acid trifluoroacetic acid salt], the negative logarithm of the IC50 (pIC50) in assay [1] was 8.10; in assay [2], 8.22.

For `CN1C(=O)NS(=O)(=O)c2cc(-c3cnc(N4CCOCC4)c4nc(/C=C/c5ccc6ccccc6n5)cn34)ccc21` [Cpd 24, (E)-4-Methyl-7-(8-morpholino-2-(2-(quinolin-2-yl)vinyl)imidazo[1,2-a]pyrazin-5-yl)-2H-benzo[e][1,2,4]thiadiazin-3(4H)-one 1,1-dioxide trifluoroacetic acid salt], the pIC50 in assay [1] is 8.52; in assay [2], 8.30.

In the case of `CS(=O)(=O)NC(=O)c1cncc(-c2cnc(N3CCOCC3)c3nc(/C=C/c4ccc5ccccc5n4)cn23)c1` [Cpd 25, (E)-N-(Methylsulfonyl)-5-(8-morpholino-2-(2-(quinolin-2-yl)vinyl)imidazo[1,2-a]pyrazin-5-yl)nicotinamide], the pIC50 in assay [1] was 8.70; in assay [2], 8.52.

As for `O=C1NC(=O)C(c2ccc(-c3cnc(N4CCOCC4)c4nc(CCc5ccc6ccccc6n5)cn34)cc2)O1` (stereo not drawn) [Cpd 26, 5-(4-(8-Morpholino-2-(2-(quinolin-2-yl)ethyl)imidazo[1,2-a]pyrazin-5-yl)phenyl)oxazolidine-2,4-dione trifluoroacetic acid salt], the pIC50 in assay [1] is 8.22; in assay [2], 8.10.

For `O=C(O)c1cncc(-c2cnc(N3CCOCC3)c3nc(/C=C/c4ccc5ccccc5n4)cn23)c1` [Cpd 27, (E)-5-(8-Morpholino-2-(2-(quinolin-2-yl)vinyl)imidazo[1,2-a]pyrazin-5-yl)nicotinic acid], the pIC50 in assay [1] and in assay [2] was 8.70 each time.

Regarding `CS(=O)(=O)NC(=O)c1ccc(-c2cnc(N3CCOCC3)c3nc(CCc4ccc5ccccc5n4)cn23)cc1` [Cpd 61, N-(Methylsulfonyl)-4-(8-morpholino-2-(2-(quinolin-2-yl)ethyl)imidazo[1,2-a]pyrazin-5-yl)benzamide hydrochloric acid salt], in assay [2], the pIC50 is 8.22.

With `CS(=O)(=O)NC(=O)c1ccc(-c2cnc(N3CCOCC3)c3nc(/C=C/c4ccc5ccccc5n4)cn23)cc1` [Cpd 62, (E)-N-(Methylsulfonyl)-4-(8-morpholino-2-(2-(quinolin-2-yl)vinyl)imidazo[1,2-a]pyrazin-5-yl)benzamide hydrochloric acid salt], the pIC50 in assay [2] was 7.80.
